One molecule from US11384172B2, “Polymer, antimicrobial agent, disinfectant, antimicrobial material, disinfectant material, antimicrobial method, and disinfecting method” (JSR CORPORATION, priority 2015, dated 2022) can be followed below.

Holding throughout (assay): Antimicrobial and disinfecting properties test (liquid medium dilution series, visual turbidity)
Holding throughout (format): cell-based
Conditions in all cases: 37° C., 16 hours

For assay [1], the system named is E. coli (drug sensitive strain, DH5α). The method, then:
(§1) Into 500 mL of hexane, 10 g of the polymer obtained in each of the above Synthesis Examples was added dropwise over 2 hours, and then vacuum drying was performed at 40° C. for 24 hours. The powder thus obtained was used for a test.
(§2) 30.4 g of a medium (Mueller Hinton II) was weighed out, and dissolved in 800 mL of sterile water, and the resultant mixture was subjected to an autoclave treatment at 121° C. and 2 atm for 15 minutes.
(§3) Each of the bacteria of the following (1) to (8) was suspended in 1 mL of the liquid medium obtained in the above “preparation of liquid medium”, OD600 was measured, and a liquid medium was added so that the amount of bacteria is 1×10^8 cfu/mL to prepare each of the bacterial liquids.
(1) E. coli (drug sensitive strain, DH5α)
(§4) A polymer (A-1) and water were mixed to prepare 10 mg/mL of a polymer aqueous solution. […]
(§5) The turbidity of each of the wells was visually discriminated and the growing state of the bacteria was confirmed. The concentrations of the dilution series, at which it was visually determined that the antimicrobial action and disinfecting action were performed without cloudiness, are shown in Table 3.
(§6) The antimicrobial and the disinfecting properties were evaluated in a similar manner as in Example 1 except that each of the compounds shown in Table 3 was used in place of the polymer (A-1) in Example 1. […]

Assay [2] concerns S. aureus (drug sensitive strain, ATCC29213). The protocol: as §1, §2, §3
(2) S. aureus (drug sensitive strain, ATCC29213)
as §4, §5, §6

Assay [3] relates to E. coli (NDM-1 producing strain). The protocol: as §1, §2, §3
(3) E. coli (NDM-1 producing strain)
as §4, §5, §6

Assay [4] concerns E. coli (IMP-1 producing strain, ST131). The method, then: as §1, §2, §3
(4) E. coli (IMP-1 producing strain, ST131)
as §4, §5, §6

Assay [5] deals with Klebsiella pneumoniae (KPC-2 producing strain, ST258).
Procedure: (5) Klebsiella pneumoniae (KPC-2 producing strain, ST258)
Into 897.6 μL of the prepared liquid medium, 102.4 μL of the above-described polymer aqueous solution was added so that the concentration of the polymer is 1024 μg/mL. This solution was diluted 2 times in wells of a 96-well plate to prepare a dilution series of 1024 μg/mL to 0.015625 μg/mL. Next, 5 μL of a bacterial liquid was added to each of the wells and incubated at 37° C. for 16 hours.
Assay [6] relates to A. baumannii (OXA-23 producing strain, ST2). The method, then: as §1, §2, §3
(6) A. baumannii (OXA-23 producing strain, ST2)
as §4, §5, §6

Assay [7] relates to Pseudomonas aeruginosa (MP-1 producing strain, ST235). The protocol: as §1, §2, §3
(7) Pseudomonas aeruginosa (MP-1 producing strain, ST235)
as §4, §5, §6

In assay [8] the test system is MRSA (S. aureus methicillin-resistant strain). The method, then:
as §1, §2, §3
(8) MRSA (S. aureus methicillin-resistant strain)
as §4, §5, §6

`N=C(N)NC(N)=Nc1ccccc1` [Phenyl biguanide, phenyl biguanide]: the “concentration of the dilution series at which antimicrobial and disinfecting action was visually determined without cloudiness” value in assay [1] was greater than 1024 µg/mL; in assay [2] it was greater than 1024 µg/mL; in assay [3], 1024 µg/mL; in assay [4], 1024 µg/mL; in assay [5], greater than 1024 µg/mL; in assay [6] it was 1024 µg/mL. Besides, the “concentration of the dilution series at which antimicrobial and disinfecting action was visually determined without cloudiness” value in assay [7] and in assay [8] was greater than 1024 µg/mL each time.
